Test results as given in patent publication US9476099B2 (TRUSTEES OF DARTMOUTH COLLEGE, priority 2012, dated 2016).
“And” between values parts separate entries of the source, which are not always exact repeats. Equal values may be shown once.

Test system: NT2/D1-R1 control and DNMT3B knockdown cells
Assay: Genome-wide expression analysis with PAM clusters, control and DNMT3B knockdown cells (Tables 8-14)
Details: sh-Ctrl + aza
[1] = NT2/D1-R1, decitabine 10 nM 3 days

## Nc1ncn([C@H]2C[C@H](O)[C@@H](CO)O2)c(=O)n1 [aza]
10 nM decitabine, 3 days
  LOC644422 XR_019449 expression Mean: 332.598
  LOC647954 XR_018676 expression Mean: 1348.27
  LOC728715 XM_0011282 expression Mean: 1760.28
  M6PRBP1 NM_005817 expression Mean: 2017.94
  MBNL3 NM_133486 expression Mean: 338.893
  MCM4 NM_005914 expression Mean: 2945.56
  MEPCE NM_019606 expression Mean: 786.84
  METTL1 NM_005371 expression Mean: 412.423
  MORF4L2 NM_012286 expression Mean: 1621.68
  MRTO4 NM_016183 expression Mean: 893.853
  MT1E NM_175617 expression Mean: 2437.55
  MTA2 NM_004739 expression Mean: 453.486
  MYOF NM_013451 expression Mean: 302.746
  MYOF NM_133337 expression Mean: 612.957
  NACC2 NM_144653 expression Mean: 566.307
  NAT5 NM_181528 expression Mean: 1401.34
  NBPF10 NM_0010376 expression Mean: 816.642
  NBPF10 NM_0010397 expression Mean: 557.142
  NEFH NM_021076 expression Mean: 538.551
  NFE2 NM_006163 expression Mean: 459.796
  NM_002467 expression Mean: 896.83
  NM_0010397 expression Mean: 736.286
  NM_138781 expression Mean: 484.429
  NODAL NM_018055 expression Mean: 954.925
  NOP2 NM_0010337 expression Mean: 7589.18
  NOP56 NM_006392 expression Mean: 1764.44
  NP NM_000270 expression Mean: 475.426
  NR_002773 expression Mean: 596.315
  NR_003287 expression Mean: 634.816
  NTF3 NM_002527 expression Mean: 286.374
  NTS NM_006183 expression Mean: 641.496
  NUAK2 NM_030952 expression Mean: 309.88 and 403.382
  OAT NM_000274 expression Mean: 2902.41
  ODC1 NM_002539 expression Mean: 3243.03
  PAK1IP1 NM_017906 expression Mean: 644.744
  PEA15 NM_003768 expression Mean: 2263.16
  PEG3 NM_006210 expression Mean: 442.766
  PITX1 NM_002653 expression Mean: 947.042
  PLAU NM_002658 expression Mean: 1093.87
  PLEKHF1 NM_024310 expression Mean: 716.406
  POLR1C NM_203290 expression Mean: 533.492 and 971.221
  PPA2 NM_006903 expression Mean: 1058.5
  PPAN NM_002566 expression Mean: 615.062
  RBM22 NM_018047 expression Mean: 921.101
  RNMTL1 NM_018146 expression Mean: 708.14
  RPL6 NM_0010246 expression Mean: 1189.55
  RRM2 NM_001034 expression Mean: 697.476
  RSL1D1 NM_015659 expression Mean: 1413.6
  RUNX3 NM_004350 expression Mean: 484.199
  SERPINE1 NM_000602 expression Mean: 539.652
  SERTAD1 NM_013376 expression Mean: 534.101
  SFXN4 NM_213649 expression Mean: 724.081
  SIDT2 NM_0010404 expression Mean: 528.693
  SLC20A1 NM_005415 expression Mean: 1468.1
  SNAPC4 NM_003086 expression Mean: 1200.9
  SOCS2 NM_003877 expression Mean: 288.614 and 566.518
  SOX15 NM_006942 expression Mean: 2791.76
  SPANXD NM_145665 expression Mean: 210.19
  SPRYD5 NM_032681 expression Mean: 519.493
  SQSTM1 NM_003900 expression Mean: 2145.19
  SRRT NM_015908 expression Mean: 4196.33
  SUSD2 NM_019601 expression Mean: 2570.13
  TAGLN NM_003186 expression Mean: 1178.17
  TNFRSF12A NM_016639 expression Mean: 519.778
  TNFRSF13B NM_012452 expression Mean: 179.31
  TNPO1 NM_153188 expression Mean: 439.283
  TPRG1L NM_182752 expression Mean: 1513.68
  TRIM8 NM_030912 expression Mean: 922.659
  TTC4 NM_004623 expression Mean: 1457.62
  UTP14A NM_006649 expression Mean: 555.285
  WBSCR22 NM_017528 expression Mean: 1107.76
  XM_0011261 expression Mean: 718.505
  XM_0011281 expression Mean: 2231.09
  XR_015970 expression Mean: 1080.49
  XR_016703 expression Mean: 6659.76
  XR_017241 expression Mean: 10363
  XR_017543 expression Mean: 832.234
  ZDHHC6 NM_022494 expression Mean: 528.208
  ZHX2 NM_014943 expression Mean: 479.456
[1]
  A4GALT (NM_017436) gene expression, Mean: 174.249
  ABR (NM_001092) gene expression, Mean: 424.634
  ACACA (NM_198836) gene expression, Mean: 443.13
